Experimental data as given in the supplement of paper PMC11061612.

How the values were obtained:
Test in all cases: combination Emax (second highest fraction inhibited in the dose matrix, 72 h); higher = more inhibition; extreme values may be limits of the assay
[1] = system: ONS-76 (Other Solid Carcinomas)
Outline: (§1)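 After 24 hours at 37°C and 5% CO2 in 1536-well plates, cells in DMEM/F12 or RPMI plus 10% FBS received two-drug dose matrices for 72 hours. Viability came from CellTiter-Glo 2.0 luminescence and was scaled as inhibition, anchored at 0 by vehicle wells and at 1 by blank wells. Combination Emax is taken as the second-highest inhibition in the matrix, and Bliss excess as the observed combination effect less EA + EB − EA·EB, with EA and EB the single-agent effects.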

[2] = system: ECC10 (Gastric Carcinoma)
Outline: as §1

[3] = system: A549 (Lung Adenocarcinoma)
Outline: as §1

[4] = system: A3-KAW (B-Cell Non-Hodgkin's Lymphoma)
Outline: as §1

Hs-445 (Non-Cancerous) = system: Hs-445 (Non-Cancerous)
Outline: as §1

[5] = system: TT (Thyroid Gland Carcinoma)
Outline: as §1

[6] = system: HCC1954 (Breast Carcinoma)
Outline: as §1

[7] = system: CCK-81 (Colorectal Carcinoma)
Outline: as §1

NCI-H2591 (Mesothelioma) = system: NCI-H2591 (Mesothelioma)
Outline: as §1

[8] = system: MDST8 (Colorectal Carcinoma)
Outline: as §1

[9] = system: OS-RC-2 (Kidney Carcinoma)
Outline: as §1

FU97 (Gastric Carcinoma) = system: FU97 (Gastric Carcinoma)
Outline: as §1

[10] = system: SK-MES-1 (Squamous Cell Lung Carcinoma)
Outline: as §1

[11] = system: SK-MG-1 (Low Grade Glioma)
Outline: as §1

[12] = system: NCI-H1666 (Lung Adenocarcinoma)
Outline: as §1

[13] = system: VCaP (Prostate Carcinoma)
Outline: as §1

[14] = system: PANC-10-05 (Pancreatic Carcinoma)
Outline: as §1

IGR-37 (Melanoma) = system: IGR-37 (Melanoma)
Outline: as §1

U-2-OS (Osteosarcoma) = system: U-2-OS (Osteosarcoma)
Outline: as §1

[15] = system: CAL-29 (Bladder Carcinoma)
Outline: as §1

SMILES	combination Emax [1]	combination Emax [2]	combination Emax [3]	combination Emax [4]	combination Emax (Hs-445 (Non-Cancerous))	combination Emax [5]	combination Emax [6]	combination Emax [7]	combination Emax (NCI-H2591 (Mesothelioma))	combination Emax [8]	combination Emax [9]	combination Emax (FU97 (Gastric Carcinoma))	combination Emax [10]	combination Emax [11]	combination Emax [12]	combination Emax [13]	combination Emax [14]	combination Emax (IGR-37 (Melanoma))	combination Emax (U-2-OS (Osteosarcoma))	combination Emax [15]
COc1cccc(OCCCN)c1-c1cc(Nc2cnc(C#N)cn2)n[nH]1 [Prexasertib] + O=C(c1cc(Cc2n[nH]c(=O)c3ccccc23)ccc1F)N1CCN(C(=O)C2CC2)CC1 [Olaparib] (first compound max 1 µM, 7x7, partner max 10 µM)	0.793	0.728	0.614	1	0.949	0.59	0.866	0.841	0.21	0.937	0.475	0.299	0.834	0.904	0.26	0.797	0.31	0.961	0.908	0.714
COc1nnc2ccc(N3CCC(c4ccc(OCCN5CCN(C)C(=O)[C@H]5C)cc4)CC3)nn12 [AZD5153] + C[C@@H]1COCCN1C2=NC(=NC(=C2)C3(CC3)[S@](=N)(=O)C)C4=C5C=CNC5=NC=C4 [AZD6738] (first compound max 1 µM, 7x7, partner max 10 µM)	0.747	0.916	0.912	1	0.727	0.629	0.657	0.95	0.558	0.812	0.467	0.839	0.769	0.595	0.493	0.839	0.682	0.757	0.589	0.7
CC1(C)CCC(CN2CCN(c3ccc(C(=O)NS(=O)(=O)c4ccc(NCC5CCOCC5)c([N+](=O)[O-])c4)c(Oc4cnc5[nH]ccc5c4)c3)CC2)=C(c2ccc(Cl)cc2)C1 [Venetoclax] + C[C@@H](Nc1cc(F)cc(F)c1)c1cc(C(=O)N(C)C)cc2c(=O)cc(N3CCOCC3)oc12 [AZD8186] (first compound max 1 µM, 7x7, partner max 3 µM)	0.746	0.969	0.471	0.302	0.612	0.531	0.0913	0.0792	0.118	0.0955	0.375	0.329	0.257	0.387	0.339	0.188	0.244	0.46	0.139	0.113
CN(CCO)CC[C@H](CSc1ccccc1)Nc1ccc(S(=O)(=O)NC(=O)c2ccc(N3CCC([C@@H](O)c4ccccc4-c4ccc(Cl)cc4)CC3)cc2)cc1S(=O)(=O)C(F)(F)F [AZD4320] + C[C@@H]1COCCN1C2=NC(=NC(=C2)C3(CC3)[S@](=N)(=O)C)C4=C5C=CNC5=NC=C4 [AZD6738] (first compound max 1 µM, 7x7, partner max 10 µM)	0.877	1	0.777	0.986	1	0.726	0.734	0.828	0.612	0.944	0.517	0.383	0.904	0.644	0.418	0.577	0.504	0.796	0.724	0.928
